Assay results published in PMC10033409, “Autoregulation of GPCR signalling through the third intracellular loop” (Nature, 2023).
“And” between values parts separate entries of the source, which are not always exact repeats. Equal entries are not always repeated. One block for each molecule: values may come before it.

Assays:
β2AR [1] = experiment: cAMP accumulation (cAMP-Glo), β2AR; format: cell-based, human; details: Extended Data Figure 6B
PTH1R–Gq peptide = experiment: PTH1R-luciferase complementation reporter assay, Gq peptide; format: biochemical, human; details: PTH1R construct named by the receptor or protein whose sequence replaces ICL3 (WT = wild-type); Y axis of Figure 5G
Protocol: For PTH1R luciferase complementation reporter assays, cells were seeded the day prior to transfection at 25-30% confluence on 12-well plates. For each transfection, 0.5 μg DNA, 1.5 μl X-tremeGENE HP, and 100 μl Opti-MEM were combined, incubated for 15-20 min, and added to seeded wells. For each mutant, PTH1R-Gs peptide, PTH1R-Gq peptide and PTH1R-(no peptide) constructs were transfected in parallel. Spep and Qpep constructs were transfected 24 h prior to collection, and no-peptide constructs were transfected 18 h before collection. […] Media in each well was used to gently shear and resuspend the cells by pipetting. The cell mixture was centrifuged (3 min, 300g) and the media was aspirated. Cell pellet was resuspended in 1 ml PBS and centrifuged again as above. […] Cellular debris was removed by centrifugation (1,000g for 1 min). To collect additional vesicles, debris was resuspended in 0.3 ml PBS, briefly vortexed, and centrifuged again (1,000g for 1 min). The ~0.9 ml of combined decanted supernatant was centrifuged one additional time (1,000g for 2 min) to better remove cellular debris. […] Vesicle samples were collected in a 96-well clear bottom plate and assayed for TagRFP fluorescence (Tecan Spark, excitation 521 nm, emission 585 nm, gain 150). For each set of constructs for a given […] ([…] control), samples were diluted to the lowest TagRFP counts. […] The plate was tapped 2-3 times to mix, and the kinetic read was resumed. Moving averages were computed for each kinetic trace (3-point averages for 5 min equilibration, 8-point moving averages post-drug treatment). Each kinetic trace was normalized to the last point of the pre-drug equilibration. The maximum luminescence value that appeared stable over time was used for further analysis. Specific Spep and Qpep signals were calculated by subtracting the control value from the Spep value and the Qpep value for a given experiment.

PTH1R–Gs peptide = experiment: PTH1R-luciferase complementation reporter assay, Gs peptide; format: biochemical, human; details: PTH1R construct named by the receptor or protein whose sequence replaces ICL3 (WT = wild-type); X axis of Figure 5G
[2] = tested on: β2AR–Gs peptide FRET sensor; experiment: ∆FRET assay, β2AR–Gs peptide SPASM FRET sensor; details: wild-type β2AR–Gs peptide sensor
[3] = target: β2AR–Gs peptide FRET sensor (Homo sapiens, UniProt P07550, DEL236-257); experiment: ∆FRET assay, β2AR–Gs peptide SPASM FRET sensor; details: β2AR(∆ICL3)–Gs peptide sensor
β2AR [4] = details: β2AR(∆ICL3); presence of Gq peptide
Protocol: (§6) Reactions were equilibrated, washed, and measured following the same procedure listed above for the radioligand antagonist-binding assay. […] Weighted averages of these IC50 values were used for comparison purposes and inhibition constant (Ki) calculations. […] Binding assays were performed in technical duplicates. Three biological replicates were collected with different membrane preparations for each replicate.

β2AR [5] = target: β2AR (Homo sapiens, UniProt P07550); details: wild-type β2AR; presence of Gq peptide
Protocol: as §6

[6] = target: β2AR ICL3 FRET sensor, β2AR(L258Azi/Y350Azi/∆351–413) (Homo sapiens, UniProt P07550, L258F/Y350F); experiment: Time-correlated single photon counting FRET assay, β2AR ICL3 FRET sensor (AZDye488/AZDye546)
Protocol: Cell membranes were prepared following the procedure in ‘Crude cell membrane extracts’ through the first ultracentrifugation step (135,000g, 25 min, 4 °C). […] Solution was homogenized, first by passing through a 1 ml micropipette 10 times, then passing through a 20-gauge needle 10 times. To initiate the reaction, sodium ascorbate (50 mM) was added to the mixture and mixed by pipetting (2 ml final volume). Reactions were incubated with mild shaking (500 rpm) for 30 min at 25 °C.
For conditions without drug, peptide or nanobody, an equivalent volume of assay buffer was added. Reactions were equilibrated for 5 min prior to reading. […] Time-resolved fluorescence decay data were fit to the equation: Decay=α1e^−t/τ^1+α2e^−t/τ^2+α3e^−t/τ^3
Amplitude-weighted average lifetimes (τavg) were calculated from the three-exponential decay equation: τavg=(α1τ1+α2τ2+α3τ3)/(α1+α2+α3)
Each condition was performed in technical duplicate or triplicate, depending on sensor yield.

A1R [7] = target: T1, A1R (Homo sapiens, UniProt P30542, DEL216-222); experiment: cAMP accumulation, A1R; format: cell-based; details: AA1R ∆ICL3; saturating agonist concentration; 500 µM IBMX
T1 construct: expressed in transfected cells; host or cells: transfected cells (HEK 293T for the β2AR assay)
T1 sequence (P30542 with tags, fused parts or gaps DEL216-222): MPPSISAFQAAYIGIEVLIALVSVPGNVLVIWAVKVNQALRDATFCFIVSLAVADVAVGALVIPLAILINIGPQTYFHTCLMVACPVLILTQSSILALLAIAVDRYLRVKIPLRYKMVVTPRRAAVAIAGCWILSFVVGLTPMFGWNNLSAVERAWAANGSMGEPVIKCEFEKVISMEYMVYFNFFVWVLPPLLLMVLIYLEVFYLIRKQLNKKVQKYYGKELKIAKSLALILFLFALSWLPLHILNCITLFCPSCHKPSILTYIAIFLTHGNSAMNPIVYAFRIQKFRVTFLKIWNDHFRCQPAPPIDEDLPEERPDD
Protocol: (§1) One millilitre of medium was removed from each well containing transfected cells. The remaining volume was used to gently shear and resuspend the cells by pipetting. The cell mixture was centrifuged (3 min, 300g) and media was removed using a vacuum manifold. […] . The cells were washed once by repeating this procedure.
(§2) For all other second messenger assays, expression level and cell density of each condition was estimated through fluorescence. […] Cells were resuspended at 350,000 ± 30,000 fluorescence counts at a wavelength representing optical density of the sample (excitation 430 nm/emission 450 nm), corresponding with 2 × 10^6 ± 5 × 10^5 cells per m^l. This was confirmed by counting the cells on a haemocytometer (Countess II). The following metrics were assessed for optimal expression: mCerulean peak emission (excitation 430 nm/475 nm):optical density emission (excitation 430 nm/emission 450 nm) of 2.0 ± 0.3 and mCitrine peak emission (excitation 490 nm/emission 525 nm):mCerulean peak emission (excitation 430 nm/emission 475 nm) of 2.0 ± 0.2.
(§3) Resuspended cells were added 1:1 with a 2× concentration of ligand (10 µl final) into an opaque 384-well flat bottom plate (Greiner Bio-One). […] . for FSK inhibition assays with β-ARs, 100 µM metoprolol was used. […] Luminescence was measured on a Tecan Spark plate reader (500 ms integration, one measurement per well).

A1R [8] = target: T2, A1R (Homo sapiens, UniProt P30542); experiment: cAMP accumulation, A1R; format: cell-based; details: AA1R Wild-Type; saturating agonist concentration; 500 µM IBMX
T2 sequence (P30542 1-326): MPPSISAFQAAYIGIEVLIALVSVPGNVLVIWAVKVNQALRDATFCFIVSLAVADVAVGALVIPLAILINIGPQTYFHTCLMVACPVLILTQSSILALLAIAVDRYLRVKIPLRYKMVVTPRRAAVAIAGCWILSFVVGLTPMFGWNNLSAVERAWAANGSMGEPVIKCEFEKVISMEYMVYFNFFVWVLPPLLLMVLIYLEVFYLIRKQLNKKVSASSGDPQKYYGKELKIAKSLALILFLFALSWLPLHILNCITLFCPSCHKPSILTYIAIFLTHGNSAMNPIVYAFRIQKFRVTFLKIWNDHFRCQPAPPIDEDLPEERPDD
Protocol: as §1, §2, §3

A1R [9] = target: T1, A1R; experiment: InsP1 accumulation, A1R; format: cell-based; details: AA1R ∆ICL3; saturating agonist concentration
Excerpt: (§7) For all other second messenger assays, expression level and cell density of each condition was estimated through fluorescence. Fluorescence spectra for mCerulean (Horiba Fluoromax 4, excitation 430 nm, emission scan 450–600 nm, bandpass 4 nm) and mCitrine (Horiba Fluoromax 4, excitation 490 nm, emission scan 500–600 nm, bandpass 4 nm) were acquired for each condition. Cells were resuspended at 350,000 ± 30,000 fluorescence counts at a wavelength representing optical density of the sample (excitation 430 nm/emission 450 nm), corresponding with 2 × 10^6 ± 5 × 10^5 cells per m^l. […]
(§8) Resuspended cells were added 1:1 with a 2× concentration of ligand (70 µl final) into an opaque 96-well U-bottom plate (Greiner Bio-One). […] FRET ratio for each reading was calculated as the ratio of acceptor emission to donor emission. InsP1 signal for a drug and transfection combination was calculated as the average FRET ratio of a given transfection condition without drug treatment subtracted from the average FRET ratio of a of a given transfection condition with drug treatment.

A1R [10] = target: T2, A1R; experiment: InsP1 accumulation, A1R; format: cell-based; details: AA1R Wild-Type; saturating agonist concentration
Excerpt: as §7, §8

β2AR L258Azi (Δ350-413) = target: T3, β2AR L258Azi (Δ350-413) (Homo sapiens, UniProt P07550, L258F); experiment: Time-correlated single photon counting, other sensor designs and dye-only controls (mNeonGreen/Cy3, TagRFP/AZDye488, free dyes); format: biochemical; details: Extended Data Figure 4L
T3 construct: HA; mNeonGreen, TagRFP or SNAP (differs by sensor design); expressed in transfected cells; host or cells: crude membrane extracts of transfected cells (HEK293), co-transfected with pIRE4-Azi
Protocol: Solution was homogenized, first by passing through a 1 ml micropipette 10 times, then passing through a 20-gauge needle 10 times. To initiate the reaction, sodium ascorbate (50 mM) was added to the mixture and mixed by pipetting (2 ml final volume). Reactions were incubated with mild shaking (500 rpm) for 30 min at 25 °C. […] For conditions without drug, peptide or nanobody, an equivalent volume of assay buffer was added. Reactions were equilibrated for 5 min prior to reading.

CB1R [11] = target: T4, CB1R (Mus musculus, UniProt P47746); experiment: InsP1 accumulation, CB1R; format: cell-based, murine; details: CB1R Wild-Type; saturating agonist concentration
T4 construct: expressed in transfected cells; host or cells: transfected cells (HEK 293T for the β2AR assay)
Protocol: (§4) One millilitre of medium was removed from each well containing transfected cells. The remaining volume was used to gently shear and resuspend the cells by pipetting. The cell mixture was centrifuged (3 min, 300g) and media was removed using a vacuum manifold. […] The cells were washed once by repeating this procedure.
as §2
(§5) Resuspended cells were added 1:1 with a 2× concentration of ligand (70 µl final) into an opaque 96-well U-bottom plate (Greiner Bio-One). […] Plates were incubated at 37 °C for 2 h to stimulate InsP1 production. […] FRET ratio for each reading was calculated as the ratio of acceptor emission to donor emission. […]

CB1R [12] = target: T5, CB1R (Mus musculus, UniProt P47746, DEL312-328); experiment: InsP1 accumulation, CB1R; format: cell-based, murine; details: CB1R ∆ICL3; saturating agonist concentration
T5 construct: expressed in transfected cells; host or cells: transfected cells (HEK 293T for the β2AR assay)
Protocol: as §4, §2, §5

CB1R [13] = target: T4, CB1R; experiment: cAMP accumulation, CB1R; format: cell-based, murine; details: CB1R Wild-Type; saturating agonist concentration; 500 µM IBMX
Protocol: as §1, §2, §3

CB1R [14] = target: T5, CB1R; experiment: cAMP accumulation, CB1R; format: cell-based, murine; details: CB1R ∆ICL3; saturating agonist concentration; 500 µM IBMX
Protocol: as §1, §2, §3

β2AR–mCerulean = β2AR–mCerulean (Homo sapiens, UniProt P07550, DEL236-262); details: ∆ICL3 β2AR–mCerulean; 10 µM biotinylated Gq peptide, 100 µM isoproterenol; single experiments 1-4
Protocol: Bio-Spep/Bio-Qpep (10 µM final) was added to the reaction mixture (300 µl final) and equilibrated on ice for 30 min. […] To the remaining 200 µl, 20 µl of 0.4 mg ml^−1 streptavidin-coated magnetic beads were added to the reaction mixture, equilibrated for 5 min at ambient temperature, and precipitated using a neodymium disc magnet N52 (20 × 40 mm). Fluorescence spectra was taken of the remaining supernatant in duplicate.

[15] = β2AR wild-type and ICL3 alanine mutants, replicates N 1-6, some omitted from analysis
[16] = Extended Data Figure 6I, replicates 1-4

T4 sequence (P47746 whole entry): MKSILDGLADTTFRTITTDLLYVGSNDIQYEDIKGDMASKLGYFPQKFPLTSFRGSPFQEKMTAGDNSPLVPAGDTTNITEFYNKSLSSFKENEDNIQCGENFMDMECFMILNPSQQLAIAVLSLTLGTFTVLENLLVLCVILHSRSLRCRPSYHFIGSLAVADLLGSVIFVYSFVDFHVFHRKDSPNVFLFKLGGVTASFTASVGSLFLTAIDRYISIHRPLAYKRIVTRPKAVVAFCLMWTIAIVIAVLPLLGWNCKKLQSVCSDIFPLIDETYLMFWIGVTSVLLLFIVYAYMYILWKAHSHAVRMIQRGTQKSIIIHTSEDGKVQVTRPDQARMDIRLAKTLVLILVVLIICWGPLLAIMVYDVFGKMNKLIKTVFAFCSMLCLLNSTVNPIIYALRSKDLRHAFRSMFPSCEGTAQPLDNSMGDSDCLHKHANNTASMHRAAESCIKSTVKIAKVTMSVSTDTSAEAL
T5 sequence (P47746 with tags, fused parts or gaps DEL312-328): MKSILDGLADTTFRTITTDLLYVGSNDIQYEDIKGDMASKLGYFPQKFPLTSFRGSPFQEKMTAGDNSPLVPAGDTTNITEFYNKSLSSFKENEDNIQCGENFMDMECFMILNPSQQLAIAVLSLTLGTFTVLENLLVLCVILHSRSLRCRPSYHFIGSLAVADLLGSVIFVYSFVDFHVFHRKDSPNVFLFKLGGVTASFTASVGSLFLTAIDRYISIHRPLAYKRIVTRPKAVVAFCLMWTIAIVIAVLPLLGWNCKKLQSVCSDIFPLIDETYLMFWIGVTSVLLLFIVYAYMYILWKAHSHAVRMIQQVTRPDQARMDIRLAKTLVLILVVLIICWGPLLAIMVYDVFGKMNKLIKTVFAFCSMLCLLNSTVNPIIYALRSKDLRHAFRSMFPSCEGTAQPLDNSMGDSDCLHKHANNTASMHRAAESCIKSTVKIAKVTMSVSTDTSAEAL

Molecule: QDG-AAA
cAMP (Relative to Wild-Type Average) (β2AR [1]; Average): 1.60
cAMP (Relative to Wild-Type Average) (β2AR [1]; [15]): 1.35 and 1.62 and 1.56 and 1.90 and 1.60 and 1.57

Molecule: CNR2
Specific Peptide Signal, Gq (Average) (PTH1R–Gq peptide): 0.16
Specific Peptide Signal, Gs (Average) (PTH1R–Gs peptide): 0.55

Molecule: HVQ-AAA
cAMP (Relative to Wild-Type Average) (β2AR [1]; Average): 1.18
cAMP (Relative to Wild-Type Average) (β2AR [1]; [15]): 0.92 and 1.04 and 1.40 and 1.30 and 1.16 and 1.28

Molecule: Humanin
Specific Peptide Signal, Gs (Average) (PTH1R–Gs peptide): 0.41

Molecule: DTENIRFVFAAVKDTILQLNLKEYNLV [Gq peptide]
effect on FRET of β2AR–Gs peptide sensor [2]: enhanced FRET
effect on FRET of β2AR–Gs peptide sensor [3]: did not enhance FRET
effect on agonist binding affinity (β2AR [4]): this effect was lost
effect on agonist binding affinity (β2AR [5]): increased agonist binding affinity
Donor-only sample (tau donor) Lifetime (ns) [6, 16]: 2.34 ns and 2.38 ns and 2.28 ns and 2.27 ns
FRET sample (tau FRET) Lifetime (ns) [6, 16]: 2.42 ns (2×) and 2.32 ns and 2.40 ns
effect on FRET of the ICL3 FRET sensor ([6]; Gq peptide alone): increased FRET to a similar level to the agonist alone
effect on FRET of the ICL3 FRET sensor ([6]; combination of agonist and Gq peptide): decreased FRET

Molecule: Oregon Green
Fluorescence lifetime, Labeled Receptor, individual replicates 1-3 (β2AR L258Azi (Δ350-413)): 2.34 and 2.19 and 2.32
Fluorescence lifetime, Labeled Receptor, Average (β2AR L258Azi (Δ350-413); average of 3): 2.28

Molecule: CCCCC/C=C\C/C=C\C/C=C\C/C=C\CCCC(=O)OC(CO)CO [2-Arachidonoylglycerol]
IP1 (AU), Average (CB1R [11]): 0.14 AU
IP1 (AU), Average (CB1R [12]): 0.27 AU
cAMP (AU), Average (CB1R [13]): 0.05 AU
cAMP (AU), Average (CB1R [14]): 0.16 AU

Molecule: 5HT2A
Specific Peptide Signal, Gq (Average) (PTH1R–Gq peptide): 0.0157
Specific Peptide Signal, Gs (Average) (PTH1R–Gs peptide): 0.37

Molecule: N-Biotin-DTENIRFVFAAVKDTILQLNLKEYNLV [Bio-Qpep]
Specific mCerulean bound (β2AR–mCerulean): 0.09 and 0.14 and 0.15 and 0.12

Molecule: 5HT1D
Specific Peptide Signal, Gq (Average) (PTH1R–Gq peptide): -0.15
Specific Peptide Signal, Gs (Average) (PTH1R–Gs peptide): 0.24

Next, values leading:

Specific Peptide Signal, Gq (Average) (PTH1R–Gq peptide): -0.09
Specific Peptide Signal, Gs (Average) (PTH1R–Gs peptide): 0.66
Molecule: HRH1

Specific Peptide Signal, Gq (Average) (PTH1R–Gq peptide): 0.0635
Specific Peptide Signal, Gs (Average) (PTH1R–Gs peptide): 0.47
Molecule: ADRB1

Specific Peptide Signal, Gq (Average) (PTH1R–Gq peptide): 0.14
Specific Peptide Signal, Gs (Average) (PTH1R–Gs peptide): 0.48
Molecule: NTS1

cAMP (AU), Average (A1R [7]): 0.0561 AU
cAMP (AU), Average (A1R [8]): -0.0258 AU
IP1 (AU), Average (A1R [9]): 0.0652 AU
IP1 (AU), Average (A1R [10]): 0.15 AU
Molecule: OC[C@H]1O[C@@H](n2cnc3c(NC4CCCC4)ncnc32)[C@H](O)[C@@H]1O [N^6-cyclopentyladenosine]

Specific Peptide Signal, Gs (Average) (PTH1R–Gs peptide): 0.39
Molecule: Gamma-synuclein

Specific Peptide Signal, Gq (Average) (PTH1R–Gq peptide): 0.14
Specific Peptide Signal, Gs (Average) (PTH1R–Gs peptide): 0.79
Molecule: GPR27
